Data set [1] is described as follows: UV absorption (UV-VIS spectra in 2-propanol, 1 mg/100 ml). The format is physicochemical. Also noted: UV absorbance at λmax (1 mg/100 ml): unit not given here. The following applies: 1 mg/100 ml; for UV absorbance at λmax (1 mg/100 ml): value in brackets after λmax in the synthesis example. As for the experimental part:
FIG. 1: UV absorption spectra of 1-hydroxy-3-[(E)-3-(4-methoxyphenyl)-2-propenoyloxy]-2-oxopropane (Example 1a) and 1-hydroxy-3-(2-cyano-3,3-diphenylacryloyloxy)-2-oxopropane (Example 1b) (in each case measured in 2-propanol at a concentration of 1 mg/100 ml)
FIG. 2: UV absorption spectra of 3-[4-(3-hydroxy-2-oxopropoxymethyl)benzylidene]-4,7,7-trimethylbicyclo[2.2.1]heptan-2-one (Example 9), N-(2,3-dihydroxypropyl)-(E)-3-(4-methoxyphenyl)acrylamide (Example 10a) and N-(2,3-dihydroxypropyl)-N-methyl-(E)-3-(4-methoxyphenyl)acrylamide (Example 10b) (in each case measured in 2-propanol at a concentration of 1 mg/100 ml).

Structures are written as SMILES.

As a reminder, the melting point is the temperature of the solid-liquid transition.

`CCCCC(CC)COc1ccc(/C=C/C(=O)OCC(=O)COC(=O)/C=C/c2ccc(OCC(CC)CCCC)cc2)cc1` (stereo not drawn) [Example 23a] gave a melting point of 77 to 79 °C. In data set [1], the “UV-VIS λmax” value was 301.0 nm and the “UV absorbance at λmax (1 mg/100 ml)” value is 0.947.

Consider `COc1ccc(/C=C/C(=O)OCC(=O)CO)cc1` [Example 1a, 1-Hydroxy-3-[(E)-3-(4-methoxyphenyl)-2-propenoyloxy]-2-oxopropane], for which the melting point lay in the range of 172 to 174 °C. In addition, in data set [1], the “UV-VIS λmax” value was found to be 301.0 nm and the “UV absorbance at λmax (1 mg/100 ml)” value is reported as 0.947.

For `COc1ccc(/C=C/C(=O)N(C)CC(O)CO)cc1` (stereo not drawn) [Example 10b, N-(2,3-dihydroxypropyl)-N-methyl-(E)-3-(4-methoxyphenyl)acrylamide], the melting point was 81 to 83 °C. For the same compound, in data set [1], the “UV-VIS λmax” value worked out at 301.0 nm and the “UV absorbance at λmax (1 mg/100 ml)” value amounted to 0.934.

As to `N#CC(C(=O)OCC(=O)CO)=C(c1ccccc1)c1ccccc1` [Example 1b, 1-Hydroxy-3-(2-cyano-3,3-diphenylacryloyloxy)-2-oxopropane], the melting point is 204 °C (dec.). Moreover, in data set [1], the “UV-VIS λmax” value is on record as 303.0 nm and the “UV absorbance at λmax (1 mg/100 ml)” value was determined as 0.375.

In turn, `N#CC(C(=O)OCC(=O)COC(=O)C(C#N)=C(c1ccccc1)c1ccccc1)=C(c1ccccc1)c1ccccc1` [Example 23b, 1,3-Bis-(2-cyano-3,3-diphenylacryloyloxy)-2-oxopropane] returned a melting point of 209 °C. In addition, in data set [1], the “UV-VIS λmax” value amounted to 304.0 nm and the “UV absorbance at λmax (1 mg/100 ml)” value came to 0.031.

With `COc1ccc(/C=C/C(=O)NCC(=O)CO[Si](C)(C)C(C)(C)C)cc1` [Example 17, N-[3-(tert-butyldimethylsilyloxy)-2-oxopropyl]-(E)-3-(4-methoxyphenyl)acrylamide], the melting point was in the range of 151 to 152 °C. In data set [1], the “UV-VIS λmax” value was 300.0 nm and the “UV absorbance at λmax (1 mg/100 ml)” value is on record as 0.843.

Take `COc1ccc(/C=C/C(=O)NCC(=O)CO)cc1` [Example 20, N-(3-hydroxy-2-oxopropyl)-(E)-3-(4-methoxyphenyl)acrylamide]: the melting point is 160 to 162 °C. In addition, in data set [1], the “UV-VIS λmax” value is given as 294.0 nm and the “UV absorbance at λmax (1 mg/100 ml)” value worked out at 0.941.

In the case of `CN(C)c1ccc(C(=O)NCC(O)CO)cc1` (stereo not drawn) [Example 10d, N-(2,3-dihydroxypropyl)-4-dimethylaminobenzamide], the melting point is 152 to 153 °C. For the same compound, in data set [1], the “UV-VIS λmax” value turned out to be 301.0 nm and the “UV absorbance at λmax (1 mg/100 ml)” value was determined as 0.947.

Compound `COc1ccc(/C=C/C(=O)OCC(=O)COC(=O)/C=C/c2ccc(OC)cc2)cc1` [Example 23, 1,3-Bis-[(E)-3-(4-methoxyphenyl)-2-propenoyloxy]-2-oxopropane] came in with a melting point of 146 to 148 °C. Besides, in data set [1], the “UV-VIS λmax” value came to 307.0 nm and the “UV absorbance at λmax (1 mg/100 ml)” value is reported as 1.140.
